Assay results: the Biogen ADME set (Fang et al. 2023)
In brackets after ≈: the same amount, converted by molar mass.

Conditions: for aqueous solubility: pH 6.8

Row | SMILES | MDR1-MDCK efflux ratio | intrinsic clearance, human liver microsomes | intrinsic clearance, rat liver microsomes | aqueous solubility | fraction unbound, human plasma | fraction unbound, rat plasma
1 | CCS(=O)(=O)Cc1ccn(-c2cccc(F)c2)n1 | 0.632 | ≤ 4.74 mL/min/kg | 38.7 mL/min/kg | 49.2 µg/mL (≈ 183 µM) | – | –
2 | CC(=O)NC1CCC(NCCSc2ccc(C)cc2)CC1 (centres undefined) | 10.8 | 64.4 mL/min/kg | 499 mL/min/kg | – | – | –
3 | O=C(Cn1cccc(C(=O)Nc2cccc(-n3cccn3)c2)c1=O)NC1CCCCC1 | 18.7 | – | – | 0.8 µg/mL (≈ 1.91 µM) | – | –
4 | Cc1cc(NC(=O)c2cc(F)cc(F)c2)sn1 | – | 130 mL/min/kg | 77.3 mL/min/kg | – | – | –
5 | CCCc1noc2nc(-c3ccncc3)cc(C(=O)O)c12 | 0.841 | ≤ 4.74 mL/min/kg | 18.1 mL/min/kg | – | – | –
6 | CCc1ccccc1NC(=O)Cn1nc(C)cc1C | 0.716 | 25.2 mL/min/kg | 94.9 mL/min/kg | 44.2 µg/mL (≈ 172 µM) | – | –
7 | CNc1nc(N2CCCCC2)nc(N2CCCCC2)n1 | – | 54.7 mL/min/kg | 801 mL/min/kg | 27 µg/mL (≈ 97.5 µM) | – | –
8 | Cc1cc(C(=O)N(C)Cc2ccsc2)no1 | 0.653 | 11 mL/min/kg | 241 mL/min/kg | 34.1 µg/mL (≈ 144 µM) | – | –
9 | O=C(Cn1c(-c2ccc(F)cc2)nc2ccccc21)N1CCOCC1 | 12.8 | ≤ 4.74 mL/min/kg | ≤ 10.7 mL/min/kg | 54.6 µg/mL (≈ 161 µM) | – | –
10 | CNC(=O)c1ccc(Nc2ncc(C(F)(F)F)c(NCc3nccnc3N(C)S(C)(=O)=O)n2)cc1 | – | 28.1 mL/min/kg | 141 mL/min/kg | 1.9 µg/mL (≈ 3.72 µM) | – | –
11 | O=C(Nc1ccccc1)N1CCCc2cnc(N3CCOCC3)nc21 | 1.22 | ≤ 4.74 mL/min/kg | 116 mL/min/kg | 5.86 µg/mL (≈ 17.3 µM) | – | –
12 | O=C1CN(C(=O)c2ccc(F)cc2)CCN1 | 2.27 | ≤ 4.74 mL/min/kg | ≤ 10.7 mL/min/kg | 47 µg/mL (≈ 212 µM) | – | –
13 | COc1cccc(OCCCn2cncc2-c2cc3c(cc2C)n(C)c(=O)n3C)c1 | 143 | 38.4 mL/min/kg | 352 mL/min/kg | 55.4 µg/mL (≈ 136 µM) | – | –
14 | CNC(=O)c1ccc2c(c1)NC(=O)/C2=C(\Nc1cccc(CN(C)C)c1)c1ccccc1 | – | – | – | 8.39 µg/mL (≈ 19.7 µM) | – | –
15 | O=C1NCCN(C(=O)c2ccc3nccn3c2)C1c1ccccc1C(F)(F)F (centres undefined) | 7.15 | ≤ 4.74 mL/min/kg | 37.5 mL/min/kg | 69.6 µg/mL (≈ 179 µM) | 0.71 | 0.633
16 | N#Cc1cccnc1Nc1cnn(Cc2ccccc2)c1 | – | 24.4 mL/min/kg | 850 mL/min/kg | 3.72 µg/mL (≈ 13.5 µM) | – | –
17 | O=C(CCCc1nc2ccccc2[nH]1)N1CCCC1 | 17.5 | ≤ 4.74 mL/min/kg | 85 mL/min/kg | 35.8 µg/mL (≈ 139 µM) | – | –
18 | Cc1cnn(Cc2nc(Cn3cccn3)no2)c1 | 0.771 | ≤ 4.74 mL/min/kg | ≤ 10.7 mL/min/kg | 36 µg/mL (≈ 147 µM) | – | –
19 | O=c1c2cnccc2ncn1Cc1ccc2c(c1)CCCO2 | 0.724 | 45.9 mL/min/kg | 281 mL/min/kg | – | – | –
20 | Cn1cnnc1-c1cccc(NS(=O)(=O)c2ccc(N3CCCC3=O)cc2)c1 | 3.7 | ≤ 4.74 mL/min/kg | 18 mL/min/kg | 56.6 µg/mL (≈ 142 µM) | – | –
21 | C#CCN1CCC[C@H]1C(=O)Nc1cnn(-c2ncccn2)c1 | 3.95 | ≤ 4.74 mL/min/kg | 83.4 mL/min/kg | 45.1 µg/mL (≈ 152 µM) | – | –

Row | SMILES | MDR1-MDCK efflux ratio | intrinsic clearance, human liver microsomes | intrinsic clearance, rat liver microsomes | aqueous solubility | fraction unbound, human plasma | fraction unbound, rat plasma
22 | Cc1nc(C2(NCc3cccc(C#N)c3)CCCC2)no1 | 0.681 | 13.3 mL/min/kg | 505 mL/min/kg | 47.6 µg/mL (≈ 169 µM) | – | –
23 | COc1cccc(NC(=O)CNc2cccc(-c3ccnc(C)n3)c2)c1 | 2.39 | 61.2 mL/min/kg | 250 mL/min/kg | 50.5 µg/mL (≈ 145 µM) | – | –
24 | Cc1ccc(OCCCC(=O)N2CCC(n3c(=O)[nH]c4ccccc43)CC2)cc1 | – | 123 mL/min/kg | 1540 mL/min/kg | – | – | –
25 | CC(=O)Nc1ccc2nc(N3CCOCC3)sc2c1 | 0.807 | ≤ 4.74 mL/min/kg | 23.1 mL/min/kg | 44 µg/mL (≈ 159 µM) | – | –
26 | CN(Cc1ccc(CO)cc1)Cc1cc(F)c(F)c(F)c1 | 0.425 | 54 mL/min/kg | 371 mL/min/kg | – | – | –
27 | CN(c1nc2ccccc2o1)C1CCN(C2CCOCC2)CC1 | – | 438 mL/min/kg | 117 mL/min/kg | – | – | –
28 | Cc1ccc(-c2ccnc(O)c2C#N)cc1 | 0.966 | ≤ 4.74 mL/min/kg | 18.9 mL/min/kg | 11.7 µg/mL (≈ 55.7 µM) | – | –
29 | Cc1cc(CN2CC(O)(CC#N)C2)ccc1F | 0.602 | 15 mL/min/kg | 703 mL/min/kg | – | – | –
30 | O=C(Nc1ccc(Cl)nc1)NC1CCN(C2CCCC2)CC1 | 20.9 | ≤ 4.74 mL/min/kg | ≤ 10.7 mL/min/kg | – | – | –
31 | Cc1ccnc(NC(=O)C2CCN(CCc3cccs3)CC2)c1 | – | – | – | 65.5 µg/mL (≈ 199 µM) | – | –
32 | O=C(Nc1cccc2ncccc12)[C@H]1CCCN(S(=O)(=O)c2cccs2)C1 | – | 35.8 mL/min/kg | 614 mL/min/kg | – | – | –
33 | Cc1cnc(C(C)(C)NCC(=O)N(C)C)s1 | 1.86 | ≤ 4.74 mL/min/kg | 20.9 mL/min/kg | – | – | –
34 | Nc1ccccc1-c1nc(C2CC2)no1 | – | 322 mL/min/kg | 754 mL/min/kg | – | – | –
35 | Cc1cc(C(=O)N(C)CC2CCN(CCO)CC2)cc(C)n1 | 1.95 | 7.92 mL/min/kg | 29.2 mL/min/kg | – | – | –
36 | Cc1cnc(CNCc2cccc3c2OCO3)s1 | 0.607 | 33 mL/min/kg | 204 mL/min/kg | 34.9 µg/mL (≈ 133 µM) | – | –
37 | Cc1ccc(NC(=O)c2cc(F)cc(F)c2)nc1 | – | 276 mL/min/kg | 285 mL/min/kg | 7.52 µg/mL (≈ 30.3 µM) | – | –
38 | Cc1ccc2[nH]c(C3CCN(C)CC3)nc2c1 | 2.88 | 88.3 mL/min/kg | 685 mL/min/kg | 57.3 µg/mL (≈ 250 µM) | – | –
39 | O=C(O)CNc1nc(-c2ccccc2)nc2ccccc12 | 0.737 | ≤ 4.74 mL/min/kg | 29.4 mL/min/kg | 25.4 µg/mL (≈ 90.8 µM) | – | –
40 | Cn1nc(-c2cn(Cc3ccc(CO)cc3)nn2)c2c(Cl)cccc21 | 5.12 | 10 mL/min/kg | 190 mL/min/kg | 19.2 µg/mL (≈ 54.3 µM) | – | –
41 | COCc1ccc(SCC(=O)NC2CCCC2)cc1 | 0.714 | 33.3 mL/min/kg | 2550 mL/min/kg | – | – | –
42 | Cc1csc(CN(C)c2ccnc(N(C)C)n2)n1 | 0.578 | 11.8 mL/min/kg | 546 mL/min/kg | 45.8 µg/mL (≈ 174 µM) | – | –
